According to ChEMBL document CHEMBL4428085, “Benzimidazole analogs as WTA biosynthesis inhibitors targeting methicillin resistant Staphylococcus aureus” (Bioorg Med Chem Lett, 2016):

Key:
[1] = Inhibition of Staphylococcus aureus TarO assessed as reversal of targocil-mediated bacterial growth inhibition
[2] = system: Staphylococcus aureus subsp. aureus COL; assay: Inhibition of methicillin-resistant Staphylococcus aureus COL TarO assessed as concentration of compound for potentiation of action of imipenem-mediated bacterial growth inhibition by 95 %
[3] = Inhibition of Staphylococcus aureus TarO
[4] = Inhibition of Staphylococcus aureus TarO assessed as suppression of bacteriophageK-mediated cell lysis
Staphylococcus aureus [5] = assay: Inhibition of methicillin-resistant Staphylococcus aureus TarO assessed as potentiation of action of imipenem-mediated bacterial growth inhibition by measuring percentage of compound MITC95<=25 uM for 25 isolates; parameters: scale not given: the % may be the effect or the level left
[6] = system: Staphylococcus epidermidis; assay: Inhibition of methicillin-resistant Staphylococcus epidermidis TarO assessed as potentiation of action of imipenem-mediated bacterial growth inhibition by measuring percentage of compound MITC95<=25 uM for 25 isolates; parameters: scale not given: the % may be the effect or the level left
Staphylococcus aureus [7] = assay: Antibacterial activity against methicillin-resistant Staphylococcus aureus COL; assay type: functional
[8] = AUC (0 to 24 hrs) in rat at 2 mg/kg, po; assay type: ADME, organism-based; parameters: dose 2 mg/kg, time < 24 hr, route oral; settings: in vivo
[9] = Half life in rat at 2 mg/kg, po; assay type: ADME, organism-based; settings: in vivo
[10] = Oral bioavailability in rat at 2 mg/kg; assay type: ADME, organism-based; settings: in vivo

**Q.** What does the source list for `CCN(C(=O)CCn1c2cc(-c3ccc(O)cc3)ccc2nc1[C@H]1CC[C@H](CC)CC1)C1CCCCC1`?
**A.** EC50 [1]: 1800 nM; MITC95 [2]: 0.3 µM; IC50 [3]: 100 nM; EC50 [4]: 29000 nM; Activity (Staphylococcus aureus [5]): 56%

**Q.** What does the source list for `CCN(C(=O)CCn1c(C2CCCN(C(=O)OC(C)(C)C)C2)nc2cc(F)ccc21)C1CCCCC1` (stereo not given)?
**A.** EC50 [1]: 1500 nM; MITC95 [2]: 0.5 µM; IC50 [3]: 60 nM; EC50 [4]: 1700 nM; Activity (Staphylococcus aureus [5]): 64%; Activity [6]: 4%

**Q.** For `CCN(C(=O)CCn1c2ccc(F)cc2nc1[C@H]1CC[C@H](CC)CC1)C1CCCCC1`, which EC50 [1] is on record?
**A.** Its EC50 is 30 nM.

**Q.** What about the Activity (Staphylococcus aureus [7]) of the same molecule?
**A.** The Activity was > 200 µM.

**Q.** And the MITC95 [2]?
**A.** The MITC95 was 0.004 µM.

**Q.** What about the IC50 [3] of the same molecule?
**A.** The IC50 was 40 nM.

**Q.** What about the EC50 [4] of the same molecule?
**A.** Its EC50 is 40 nM.

**Q.** And the Activity (Staphylococcus aureus [5])?
**A.** Its Activity is 76%.

**Q.** What about the Activity [6] of the same molecule?
**A.** Its Activity is 54%.

**Q.** And the AUC [8]?
**A.** Its AUC is 0.9 µM·h.

**Q.** And the half-life [9]?
**A.** Its half-life is 5 h.

**Q.** What about the bioavailability [10] of the same molecule?
**A.** The bioavailability was 15%.

**Q.** Which EC50 [1] does the source give for `CCNC(=O)N1CCCC(c2nc3cc(F)ccc3n2CCC(=O)N(CC)C2CCCCC2)C1` (stereo not given) here?
**A.** Its EC50 is > 200000 nM.

**Q.** What about the MITC95 [2] of the same molecule?
**A.** Its MITC95 is 100 µM.

**Q.** And the IC50 [3]?
**A.** Its IC50 is 28000 nM.

**Q.** And the EC50 [4]?
**A.** Its EC50 is > 200000 nM.

**Q.** Which EC50 [1] does the source give for `CCN(C(=O)CCn1c2cccc(F)c2nc1[C@H]1CC[C@H](CC)CC1)C1CCCCC1` here?
**A.** The EC50 was 400 nM.

**Q.** And the MITC95 [2]?
**A.** The MITC95 was 0.1 µM.

**Q.** And the IC50 [3]?
**A.** Its IC50 is 30 nM.

**Q.** What about the EC50 [4] of the same molecule?
**A.** Its EC50 is 800 nM.

**Q.** And the Activity (Staphylococcus aureus [5])?
**A.** The Activity was 68%.

**Q.** And the Activity [6]?
**A.** Its Activity is 58%.

**Q.** Which results are given for `CCN(C(=O)CCn1c2cc(C(=O)O)ccc2nc1[C@H]1CC[C@H](CC)CC1)C1CCCCC1`?
**A.** EC50 [1]: > 200000 nM; MITC95 [2]: 200 µM; IC50 [3]: 147000 nM; EC50 [4]: > 200000 nM

**Q.** Which EC50 [1] does the source give for `CC1(C)[C@@H]2CC[C@@]1(C)[C@@H](NC(=O)CCn1c(C3CCCCC3)nc3ccccc31)C2` here?
**A.** The EC50 was 6000 nM.

**Q.** What about the Activity (Staphylococcus aureus [7]) of the same molecule?
**A.** Its Activity is >200 µM.

**Q.** And the MITC95 [2]?
**A.** The MITC95 was 3 µM.

**Q.** And the IC50 [3]?
**A.** The IC50 was 400 nM.

**Q.** And the EC50 [4]?
**A.** The EC50 was 3000 nM.

**Q.** For `CCN(C(=O)CCn1c(C2CCCN(C(C)=O)C2)nc2cc(F)ccc21)C1CCCCC1` (stereo not given), which EC50 [1] is on record?
**A.** The EC50 was > 200000 nM.

**Q.** And the MITC95 [2]?
**A.** The MITC95 was 100 µM.

**Q.** What about the IC50 [3] of the same molecule?
**A.** The IC50 was 48000 nM.

**Q.** And the EC50 [4]?
**A.** The EC50 was > 200000 nM.

**Q.** For `CCN(C(=O)CCn1c2cc(F)ccc2nc1[C@H]1CC[C@H](CC)CC1)C1CCCCC1`, which EC50 [1] is on record?
**A.** Its EC50 is 700 nM.

**Q.** What about the MITC95 [2] of the same molecule?
**A.** The MITC95 was 0.1 µM.

**Q.** And the IC50 [3]?
**A.** The IC50 was 20 nM.

**Q.** What about the EC50 [4] of the same molecule?
**A.** Its EC50 is 800 nM.

**Q.** And the Activity (Staphylococcus aureus [5])?
**A.** The Activity was 68%.

**Q.** And the Activity [6]?
**A.** Its Activity is 42%.

**Q.** What does the source list for `CCN(C(=O)CCn1c2ccc(Br)cc2nc1[C@H]1CC[C@H](CC)CC1)C1CCCCC1`?
**A.** Activity (Staphylococcus aureus [7]): >200 µM; IC50 [3]: < 400 nM

**Q.** With `CCN(C(=O)CCn1c2c(F)cccc2nc1[C@H]1CC[C@H](CC)CC1)C1CCCCC1` as the molecule, how does the EC50 [1] read?
**A.** The EC50 was 400 nM.

**Q.** What about the MITC95 [2] of the same molecule?
**A.** Its MITC95 is 0.8 µM.

**Q.** And the IC50 [3]?
**A.** The IC50 was 40 nM.

**Q.** What about the EC50 [4] of the same molecule?
**A.** Its EC50 is 900 nM.

**Q.** And the Activity (Staphylococcus aureus [5])?
**A.** Its Activity is 68%.

**Q.** What about the Activity [6] of the same molecule?
**A.** Its Activity is 75%.

**Q.** Which EC50 [1] does the source give for `CCN(C(=O)CCn1c2cc(-c3ccc(CO)cc3)ccc2nc1[C@H]1CC[C@H](CC)CC1)C1CCCCC1` here?
**A.** Its EC50 is > 200000 nM.

**Q.** What about the MITC95 [2] of the same molecule?
**A.** The MITC95 was 4.7 µM.

**Q.** And the IC50 [3]?
**A.** The IC50 was 300 nM.

**Q.** What about the EC50 [4] of the same molecule?
**A.** The EC50 was > 200000 nM.

**Q.** With `CCN(C(=O)CCn1c(-c2ccc(-n3ccnn3)cc2)nc2ccccc21)C1CCCCC1` as the molecule, how does the EC50 [1] read?
**A.** The EC50 was > 200000 nM.

**Q.** And the MITC95 [2]?
**A.** Its MITC95 is 19 µM.

**Q.** What about the IC50 [3] of the same molecule?
**A.** The IC50 was 3800 nM.

**Q.** What about the EC50 [4] of the same molecule?
**A.** The EC50 was > 200000 nM.

**Q.** Which results are given for `CCN(C(=O)CCn1c2cc(-c3cnn(C)c3)ccc2nc1[C@H]1CC[C@H](CC)CC1)C1CCCCC1`?
**A.** EC50 [1]: 600 nM; MITC95 [2]: 0.2 µM; IC50 [3]: 50 nM; EC50 [4]: 700 nM; Activity (Staphylococcus aureus [5]): 80%; Activity [6]: 67%

**Q.** Which results are given for `CCN(C(=O)CCn1c2cc(CO)ccc2nc1[C@H]1CC[C@H](CC)CC1)C1CCCCC1`?
**A.** EC50 [1]: 7100 nM; MITC95 [2]: 0.5 µM; IC50 [3]: 100 nM; EC50 [4]: 5400 nM; Activity (Staphylococcus aureus [5]): 68%

**Q.** Which EC50 [1] does the source give for `CCN(C(=O)CCn1c2cc(CN(C)C)ccc2nc1[C@H]1CC[C@H](CC)CC1)C1CCCCC1` here?
**A.** Its EC50 is > 200000 nM.

**Q.** And the MITC95 [2]?
**A.** Its MITC95 is 25 µM.

**Q.** What about the IC50 [3] of the same molecule?
**A.** The IC50 was 200000 nM.

**Q.** What about the EC50 [4] of the same molecule?
**A.** Its EC50 is > 200000 nM.

**Q.** With `CCN(C(=O)CCn1c2cc(-c3cn[nH]c3)ccc2nc1[C@H]1CC[C@H](CC)CC1)C1CCCCC1` as the molecule, how does the EC50 [1] read?
**A.** The EC50 was 24000 nM.

**Q.** What about the MITC95 [2] of the same molecule?
**A.** The MITC95 was 6.3 µM.

**Q.** What about the IC50 [3] of the same molecule?
**A.** The IC50 was 200000 nM.

**Q.** And the EC50 [4]?
**A.** The EC50 was 100000 nM.

**Q.** What does the source list for `CCN(C(=O)CCn1c(-c2ccc(OCC(F)(F)F)cc2)nc2ccccc21)C1CCCCC1`?
**A.** EC50 [1]: 1100 nM; MITC95 [2]: 0.3 µM; IC50 [3]: 40 nM; EC50 [4]: 1200 nM; Activity (Staphylococcus aureus [5]): 68%; Activity [6]: 4%

**Q.** What does the source list for `CCOC(=O)N1CCCC(c2nc3cc(F)ccc3n2CCC(=O)N(CC)C2CCCCC2)C1` (stereo not given)?
**A.** EC50 [1]: 3300 nM; MITC95 [2]: 0.4 µM; IC50 [3]: 100 nM; EC50 [4]: 3300 nM; Activity (Staphylococcus aureus [5]): 68%

**Q.** What does the source list for `CCN(C(=O)CCn1c(C2CCCNC2)nc2cc(F)ccc21)C1CCCCC1` (stereo not given)?
**A.** EC50 [1]: > 200000 nM; MITC95 [2]: 200 µM; IC50 [3]: 16500 nM; EC50 [4]: > 200000 nM

**Q.** Which results are given for `CCN(C(=O)CCn1c2cc(-c3ccccc3)ccc2nc1[C@H]1CC[C@H](CC)CC1)C1CCCCC1`?
**A.** EC50 [1]: 30 nM; MITC95 [2]: 0.2 µM; IC50 [3]: 4 nM; EC50 [4]: 200 nM; Activity (Staphylococcus aureus [5]): 72%; Activity [6]: 12%

**Q.** What does the source list for `CCN(C(=O)CCn1c(-c2ccc(C(=O)OC)cc2)nc2ccccc21)C1CCCCC1`?
**A.** EC50 [1]: 4300 nM; MITC95 [2]: 1.2 µM; IC50 [3]: 100 nM; EC50 [4]: 6900 nM; Activity (Staphylococcus aureus [5]): 64%

**Q.** With `CCN(C(=O)CCn1c2cc(C(=O)NC3CC3)ccc2nc1[C@H]1CC[C@H](CC)CC1)C1CCCCC1` as the molecule, how does the EC50 [1] read?
**A.** The EC50 was 90000 nM.

**Q.** And the MITC95 [2]?
**A.** The MITC95 was 50 µM.

**Q.** And the IC50 [3]?
**A.** Its IC50 is 200000 nM.

**Q.** And the EC50 [4]?
**A.** The EC50 was 108000 nM.
